This is an account of results in ChEMBL document CHEMBL5715954, “Silencing c-Myc translation as a therapeutic strategy through targeting PI3Kδ and CK1ε in hematological malignancies” (Blood, 2017).

What is called inhibition is the percentage by which the read-out fell short of the control.

In experiment [1] the target is Myc proto-oncogene protein (Homo sapiens) (UniProt P01106). Nature of the experiment: Inhibition of c-Myc in human LY10 cells assessed as reduction in eIF4B expression at 3 uM incubated for 24 hrs in presence of bortezomib by Western blot analysis. The class given is cell-based. In general terms: Immunoblotting shows a protein as a band on a membrane.
In experiment [2] the target is T1, mTORC1 (Homo sapiens) (UniProt P42345+Q8N122+Q9BVC4). Nature of the experiment: Inhibition of mTORC1 in human PF-382 cells assessed as reduction in c-Myc expression at 5 uM measured after 24 hrs in presence of bortezomib by Western blot analysis. It counts as cell-based.
Experiment [3] deals with SLL. Kind of experiment: Induction of apoptosis in human SLL cells assessed as increase in cleaved-PARP expression at 5 uM measured after 24 hrs in presence of bortezomib by Western blot analysis. It counts as functional, cell-based.
Experiment [4] deals with T1, mTORC1 (Homo sapiens). Kind of experiment: Inhibition of mTORC1 in human LY7 cells assessed as reduction in c-Myc mRNA expression at 3 uM measured after 24 hrs in presence of bortezomib. It counts as cell-based.
Experiment [5] concerns LY7. Nature of the experiment: Induction of apoptosis in human LY7 cells assessed as increase in cleaved-PARP expression at 3 uM measured after 24 hrs in presence of bortezomib by Western blot analysis. It counts as functional, cell-based.
Experiment [6] concerns the target T1, mTORC1 (Homo sapiens). Nature of the experiment: Inhibition of mTORC1 in human SLL cells assessed as reduction in 4E-BP1 phosphorylation at 5 uM measured after 24 hrs in presence of bortezomib by Western blot analysis. It counts as cell-based.
For experiment [7], the target named is T1, mTORC1 (Homo sapiens). Nature of the experiment: Inhibition of mTORC1 in human LY7 cells assessed as reduction in c-Myc expression at 3 uM measured after 24 hrs in presence of bortezomib by Western blot analysis. The class given is cell-based.
The test system of experiment [8] is OCI-Ly7. Kind of experiment: Cytotoxicity against human OCILY7 cells transfected with c-Myc-expressing plasmid (M+) assessed as reduction in cell viability at 3 to 5 uM incubated for 24 hrs in presence of carfilzomib by cell-titer glo assay. The class given is functional, cell-based. The following applies: dose 3-5 µM.
Experiment [9] addresses Myc proto-oncogene protein (Homo sapiens) (UniProt P01106). Kind of experiment: Inhibition of c-Myc in human LY7 cells assessed as reduction in E2F1 expression at 3 uM incubated for 24 hrs in presence of carfilzomib by Western blot analysis. The class given is cell-based.
Experiment [10] addresses T1, mTORC1 (Homo sapiens). Nature of the experiment: Inhibition of mTORC1 in human CLL cells assessed as reduction in c-Myc expression at 5 uM measured after 24 hrs in presence of carfilzomib by Western blot analysis. It counts as cell-based. The following applies: CLL cell.
Experiment [11] deals with T1, mTORC1 (Homo sapiens). Nature of the experiment: Inhibition of mTORC1 in human LY7 cells assessed as reduction in 4E-BP1 phosphorylation at 3 uM measured after 24 hrs in presence of carfilzomib by Western blot analysis. The class given is cell-based.
In experiment [12] the target is T1, mTORC1 (Homo sapiens). Kind of experiment: Inhibition of mTORC1 in human SLL cells assessed as reduction in c-Myc expression at 5 uM measured after 24 hrs in presence of carfilzomib by Western blot analysis. It counts as cell-based.
Experiment [13] deals with T2, Phosphatidylinositol 4,5-bisphosphate 3-kinase catalytic subunit delta isoform (Homo sapiens) (UniProt O00329).
T2 sequence (whole entry): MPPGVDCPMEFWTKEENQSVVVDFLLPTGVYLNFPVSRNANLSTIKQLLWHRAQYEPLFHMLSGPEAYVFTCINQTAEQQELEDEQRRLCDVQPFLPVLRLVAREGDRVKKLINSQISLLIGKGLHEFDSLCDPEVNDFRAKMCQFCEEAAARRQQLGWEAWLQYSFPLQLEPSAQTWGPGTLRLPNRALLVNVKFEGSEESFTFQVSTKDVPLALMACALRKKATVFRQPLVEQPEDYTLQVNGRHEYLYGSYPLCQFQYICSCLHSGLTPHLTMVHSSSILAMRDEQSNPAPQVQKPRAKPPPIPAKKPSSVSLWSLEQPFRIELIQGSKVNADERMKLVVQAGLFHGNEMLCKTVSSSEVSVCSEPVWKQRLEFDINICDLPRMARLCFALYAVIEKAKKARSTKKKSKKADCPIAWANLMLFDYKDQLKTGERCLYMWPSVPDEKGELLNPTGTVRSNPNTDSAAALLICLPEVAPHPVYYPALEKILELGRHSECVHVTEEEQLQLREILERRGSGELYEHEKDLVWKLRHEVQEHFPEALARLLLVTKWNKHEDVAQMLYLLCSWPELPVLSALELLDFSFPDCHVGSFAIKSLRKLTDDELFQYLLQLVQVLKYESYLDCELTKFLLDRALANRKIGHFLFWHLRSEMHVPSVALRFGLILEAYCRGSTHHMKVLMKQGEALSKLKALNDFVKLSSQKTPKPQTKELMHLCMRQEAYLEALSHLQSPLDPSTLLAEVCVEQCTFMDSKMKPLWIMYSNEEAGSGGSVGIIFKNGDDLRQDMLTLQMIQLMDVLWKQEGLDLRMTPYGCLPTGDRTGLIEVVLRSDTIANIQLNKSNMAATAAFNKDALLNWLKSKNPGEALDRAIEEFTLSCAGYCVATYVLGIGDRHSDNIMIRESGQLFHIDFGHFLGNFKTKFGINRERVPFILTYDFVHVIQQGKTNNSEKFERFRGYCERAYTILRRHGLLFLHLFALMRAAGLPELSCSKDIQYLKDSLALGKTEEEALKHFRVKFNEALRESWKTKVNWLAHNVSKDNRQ
Nature of the experiment: Inhibition of PI3Kdelta in human MOLT-4 cells assessed as reduction in AKT phosphorylation at S473 residue at 1 uM measured after 4 hrs relative to control. It counts as cell-based.

The target in experiment [14] is T2, Phosphatidylinositol 4,5-bisphosphate 3-kinase catalytic subunit delta isoform (Homo sapiens). Nature of the experiment: Inhibition of PI3Kdelta in human HL-60 cells assessed as reduction in AKT phosphorylation at S473 residue measured after 4 hrs. The conditions noted are these: dose 10-10000 nM. The class given is cell-based.
For experiment [15] the target is unchanged. Nature of the experiment: Inhibition of PI3Kdelta in human THP-1 cells assessed as reduction in AKT phosphorylation at S473 residue measured after 4 hrs. It counts as cell-based. The following applies: dose 10-10000 nM.
The target in experiment [16] is T1, mTORC1 (Homo sapiens). Kind of experiment: Inhibition of mTORC1 in human OCILY7 cells transfected with c-myc-5'-UTR-luciferase construct assessed as reduction in c-myc translation at 3 to 5 uM incubated for 24 hrs in presence of carfilzomib by luciferase reporter gene assay. It counts as cell-based. The following applies: dose 3-5 µM. In general terms: In a reporter assay the amount or activity of a reporter protein is the signal.

In experiment [17] the target is T1, mTORC1 (Homo sapiens). Nature of the experiment: Inhibition of mTORC1 in human PF-382 cells assessed as reduction in 4E-BP1 phosphorylation at 5 uM measured after 24 hrs in presence of carfilzomib by Western blot analysis. The class given is cell-based.
In experiment [18] the target is T1, mTORC1 (Homo sapiens). Kind of experiment: Inhibition of mTORC1 in human NCI-H929 cells assessed as reduction in 4E-BP1 phosphorylation at 5 uM measured after 24 hrs by Western blot analysis. The class given is cell-based.
Experiment [19] concerns the target T1, mTORC1 (Homo sapiens). Nature of the experiment: Inhibition of mTORC1 in human LY10 cells assessed as reduction in 4E-BP1 phosphorylation at 3 uM measured after 24 hrs in presence of carfilzomib by Western blot analysis. The class given is cell-based.
Experiment [20] concerns NCI-H929. Nature of the experiment: Cytotoxicity against human NCI-H929 cells transduced with an empty vector assessed as reduction in cell viability at 5 uM incubated for 24 hrs in presence of carfilzomib by cell-titer glo assay. It counts as functional, cell-based.
Experiment [21] concerns the target T1, mTORC1 (Homo sapiens). Nature of the experiment: Inhibition of mTORC1 in human NCI-H929 cells assessed as reduction in 4E-BP1 phosphorylation at 5 uM measured after 24 hrs in presence of carfilzomib by Western blot analysis. It counts as cell-based.
Experiment [22] deals with T1, mTORC1 (Homo sapiens). Kind of experiment: Inhibition of mTORC1 in human SLL cells assessed as reduction in 4E-BP1 phosphorylation at 5 uM measured after 24 hrs in presence of carfilzomib by Western blot analysis. The class given is cell-based.

Activity calls are given as the source filed them. No cut-off for these calls is given here.

T1 sequence (Q8N122 whole entry, looked up, other chains not shown): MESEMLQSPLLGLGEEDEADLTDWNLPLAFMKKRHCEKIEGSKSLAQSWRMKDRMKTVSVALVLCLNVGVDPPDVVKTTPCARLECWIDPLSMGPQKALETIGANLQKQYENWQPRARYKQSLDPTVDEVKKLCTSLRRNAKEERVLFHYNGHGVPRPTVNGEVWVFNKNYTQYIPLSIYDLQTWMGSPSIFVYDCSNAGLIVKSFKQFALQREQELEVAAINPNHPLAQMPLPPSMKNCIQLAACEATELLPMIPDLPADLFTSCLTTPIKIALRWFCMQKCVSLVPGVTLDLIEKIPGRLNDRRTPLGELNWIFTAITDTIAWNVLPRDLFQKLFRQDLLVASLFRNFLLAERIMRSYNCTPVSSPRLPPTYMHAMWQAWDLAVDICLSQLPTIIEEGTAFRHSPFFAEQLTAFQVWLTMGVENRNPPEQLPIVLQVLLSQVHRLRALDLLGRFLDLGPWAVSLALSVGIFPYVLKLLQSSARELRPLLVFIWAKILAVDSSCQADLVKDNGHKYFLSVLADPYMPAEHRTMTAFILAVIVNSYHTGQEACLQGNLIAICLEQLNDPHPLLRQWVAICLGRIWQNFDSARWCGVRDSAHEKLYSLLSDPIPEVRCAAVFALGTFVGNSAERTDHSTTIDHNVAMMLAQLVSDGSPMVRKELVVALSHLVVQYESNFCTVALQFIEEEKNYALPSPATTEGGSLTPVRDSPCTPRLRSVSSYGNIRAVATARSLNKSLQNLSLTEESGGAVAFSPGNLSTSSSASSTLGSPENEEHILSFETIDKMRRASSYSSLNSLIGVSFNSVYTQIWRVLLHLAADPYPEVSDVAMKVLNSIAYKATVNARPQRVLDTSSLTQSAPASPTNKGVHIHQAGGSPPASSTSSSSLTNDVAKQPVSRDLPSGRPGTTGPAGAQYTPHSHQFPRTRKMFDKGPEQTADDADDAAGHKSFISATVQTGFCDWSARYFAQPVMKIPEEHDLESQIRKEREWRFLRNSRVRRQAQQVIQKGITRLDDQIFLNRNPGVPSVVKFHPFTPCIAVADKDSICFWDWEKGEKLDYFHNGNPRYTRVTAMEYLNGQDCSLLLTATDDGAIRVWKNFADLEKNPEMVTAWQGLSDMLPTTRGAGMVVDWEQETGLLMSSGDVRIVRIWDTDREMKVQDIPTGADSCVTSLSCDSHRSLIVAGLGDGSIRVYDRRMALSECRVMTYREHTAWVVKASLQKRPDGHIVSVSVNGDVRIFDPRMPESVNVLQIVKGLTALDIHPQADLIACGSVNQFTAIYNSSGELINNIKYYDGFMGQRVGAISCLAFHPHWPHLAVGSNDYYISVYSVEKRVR
T1 sequence (Q9BVC4 whole entry, looked up, other chains not shown): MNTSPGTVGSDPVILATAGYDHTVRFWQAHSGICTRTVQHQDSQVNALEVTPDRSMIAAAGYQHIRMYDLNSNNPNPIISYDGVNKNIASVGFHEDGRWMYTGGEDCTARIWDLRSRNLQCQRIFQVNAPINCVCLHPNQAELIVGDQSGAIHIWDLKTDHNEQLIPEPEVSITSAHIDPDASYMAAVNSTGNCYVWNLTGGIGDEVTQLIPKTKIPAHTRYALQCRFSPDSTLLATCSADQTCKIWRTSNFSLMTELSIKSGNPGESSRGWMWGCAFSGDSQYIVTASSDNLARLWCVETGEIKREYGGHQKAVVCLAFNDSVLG
Sequence of Myc proto-oncogene protein (Homo sapiens) (P01106 whole entry): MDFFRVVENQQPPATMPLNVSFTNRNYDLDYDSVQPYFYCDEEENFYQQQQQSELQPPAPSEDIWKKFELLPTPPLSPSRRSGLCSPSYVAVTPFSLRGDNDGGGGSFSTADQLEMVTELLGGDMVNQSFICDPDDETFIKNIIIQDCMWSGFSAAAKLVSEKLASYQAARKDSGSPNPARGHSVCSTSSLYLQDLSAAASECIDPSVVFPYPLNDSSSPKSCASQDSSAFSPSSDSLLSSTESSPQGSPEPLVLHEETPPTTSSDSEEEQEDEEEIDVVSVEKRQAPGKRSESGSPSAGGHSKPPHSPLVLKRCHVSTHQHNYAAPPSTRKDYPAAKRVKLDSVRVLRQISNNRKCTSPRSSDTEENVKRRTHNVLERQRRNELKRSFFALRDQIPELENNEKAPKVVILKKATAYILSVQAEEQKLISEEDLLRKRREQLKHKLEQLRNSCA

With `CC[C@H](Nc1ncnc2[nH]cnc12)c1nc2cccc(F)c2c(=O)n1-c1ccccc1`, the inhibition entry in [1], in [2], in experiment [4], in experiment [6] and in experiment [7] was “inactive” each time. The result in experiment [3] and in experiment [5] was Active.
As for `CC(C)Oc1ccc(-c2nn([C@@H](C)c3oc4ccc(F)cc4c(=O)c3-c3cccc(F)c3)c3ncnc(N)c23)cc1F` [UMBRALISIB], the outcome in experiment [8] was inactive. Further, the inhibition entry in [9], in experiment [10], in experiment [11], in experiment [12], in experiment [16] and in experiment [17] was “Active” in each case. Further, the inhibition result in experiment [19], in experiment [21] and in [22] was “Active” in each case. Besides, the inhibition was 43% in experiment [13], “Dose-Dependent Effect” in [14] and “Dose-Dependent Effect” in [15]. In experiment [18], the inhibition entry was “inactive”. Moreover, the outcome in [20] was Active.
